Square brackets hold non-standard residues; d marks the D form. Peptide text beside a SMILES is read from it. pS = N[C@@H](COP(=O)(O)O)C(=O)O
Tests used:
[1] = target: T1, Arabidopsis 14-3-3 isoform kappa (14-3-3κ) (Arabidopsis thaliana, UniProt P48348); assay: biochemical; format: binding
T1 construct: Full-length At14-3-3-κ^1−248 (Uniprot-ID P48348, http://uniprot.org); thioredoxin A (trxA) fusion (N, cleaved yes); 8xHis (N, cleaved yes); StrepII (N, cleaved yes); made in house; host or cells: E. coli BL21 (DE3) RIL
Source text: Full-length At14-3-3-κ^1−248 (Uniprot-ID P48348, http://uniprot.org), At14-3-3-λ^1−248 (P48349), At14-3-3-ω^1−259 (Q01525) or C-terminal truncated At14-3-3-κ^1−240, At14-3-3-λ^1−240 or At14-3-3-ω^1−237 isoforms and BIN2^7−380 from Arabidopsis were cloned from synthetic genes codon-optimized for expression in E. coli (Geneart, Thermofisher, Tauberbischofsheim, Germany) into vector pMH-HStrxT providing an N-terminal thioredoxin A (trxA) fusion protein containing 8xHis and StrepII affinity tags, and a tobacco etch virus protease (TEV) recognition site. Protein expression in E. coli BL21 (DE3) RIL grown to OD600nm= 0.6 was induced with 0.2 mM ispropyl β-D-galactoside in terrific broth at 16°C for 16 h. Cells were collected by centrifugation at 4500 × g for 30 min, washed in PBS buffer, centrifuged again at 4500 × g for 15 min and snap-frozen in liquid N2. For protein purification cells were resuspended in buffer A (20 mM Tris–HCl pH 8.0, 500 mM NaCl), and lysed by sonication (Branson DS450). The lysate was cleared by centrifugation at 7000 × g for 60 min and filtrated using a 0.45 µm molecular weight cutoff filter (Pall Corporation, Port Washington, NY, USA). The supernatant was loaded onto a Ni^2+ affinity column (HisTrap HP 5 mL, Cytiva Life Sciences, Freiburg im Breisgau, Germany), washed with buffer A and eluted in buffer A supplemented with 250 mM imidazole pH 8.0. […]

[2] = target: T2, 14-3-3 ω (biotinylated dimer on streptavidin chip) (Arabidopsis thaliana, UniProt Q01525); assay: Grating coupled interferometry (GCI) binding kinetics versus 14-3-3 ω; conditions: 25°C, 1-to-1 (2:2) binding model
T2 construct: Full-length At14-3-3-κ^1−248 (Uniprot-ID P48348, http://uniprot.org), At14-3-3-λ^1−248 (P48349), At14-3-3-ω^1−259 (Q01525); thioredoxin A (trxA) fusion (N, cleaved yes); 8xHis (N, cleaved yes); StrepII (N, cleaved yes); biotin (chemical, EZ-Link NHS-Biotin on amines); made in house; host or cells: E. coli BL21 (DE3) RIL
T2 sequence (Q01525 1-259): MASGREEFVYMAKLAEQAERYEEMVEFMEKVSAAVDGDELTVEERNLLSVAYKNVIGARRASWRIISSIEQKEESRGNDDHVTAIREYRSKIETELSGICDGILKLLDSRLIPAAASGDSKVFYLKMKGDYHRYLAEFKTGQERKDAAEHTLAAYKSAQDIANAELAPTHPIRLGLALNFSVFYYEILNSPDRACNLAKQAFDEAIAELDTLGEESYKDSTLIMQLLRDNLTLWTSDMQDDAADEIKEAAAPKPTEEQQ
Experimental: The binding kinetics of 14-3-3 ω versus the BZR1^169−175 and pBZR1^169−175 peptides (Table 1) were assessed on a Creoptix® WAVE system using a streptavidin-coated 4PCH WAVEchip® (long polycarboxylate matrix; Creoptix AG, Switzerland). Chips were first conditioned with 100 mM sodium borate pH 9.0, 1 m NaCl. Next, after the activation of the chip surface with a 1:1 mix of 400 mM N-(3-dimethylaminopropyl)-N’-ethylcarbodiimide hydrochloride and 100 mM N-[…] hydroxysuccinimide (Xantec, Germany), streptavidin was immobilized on the chip surface through the injection of 50 µg/ml streptavidin (ThermoFisher Scientific 43–4301) in 10 mM sodium acetate pH 5.0 until high density (∼10,000 pg/mm^2) was reached. Biotinylation of 14-3-3 ω for capturing onto streptavidin chip was performed by mixing equimolar amounts of protein and biotin (EZ-Link™ NHS-Biotin ThermoFisher Scientific). A total of 170 µM of 14-3-3 ω were incubated on ice with 170 µM of biotin (previously dissolved in water to 20 mM) for 1.5 min. The biotinylation was performed in 100 mM Hepes pH 8 and 150 mM NaCl. The biotinylated 14-3-3 ω dimer was purified by size exclusion chromatography in 20 mM Hepes pH 7.5 and 150 mM NaCl on a Superdex 10/300 increase column (Cytiva Life Sciences) to verify the homogeneity and to remove excess biotin. Gel-filtrated biotinylated 14-3-3 ω (0.45 mg/ml) was directly immobilized on the streptavidin-coated chip until a density of about 500 pg/ mm^2 was reached. The synthetic BRZ1^169−175 and pBZR1^169−175 peptides were dissolved in 20 mM Hepes and 150 mM NaCl buffer to a final concentration of 10 mM. Kinetic analysis of 14-3-3 ω and BZR1^169−175/pBZR1^169−175 interactions was performed at 25°C by flushing a dilution series of the analyte pBZR1 with a 2 dilution factor starting from 10 µM. Data analysis and data fitting were done using the Creoptix WAVEcontrol® software.

T1 sequence (P48348 whole entry, the tested form may be a part, canonical isoform): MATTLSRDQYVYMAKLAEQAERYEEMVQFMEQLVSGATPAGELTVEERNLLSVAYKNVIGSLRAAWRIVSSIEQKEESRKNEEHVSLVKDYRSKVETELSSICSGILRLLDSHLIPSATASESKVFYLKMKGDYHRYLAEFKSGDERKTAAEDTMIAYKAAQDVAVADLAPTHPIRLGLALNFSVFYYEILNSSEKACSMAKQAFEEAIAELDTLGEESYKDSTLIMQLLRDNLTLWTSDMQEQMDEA

Question: With `CC(C)C[C@H](NC(=O)[C@H](CCC(=O)O)NC(=O)CNC(=O)[C@@H](N)CCCNC(=N)N)C(=O)N[C@@H](Cc1ccccc1)C(=O)N[C@@H](COP(=O)(O)O)C(=O)N[C@@H](C)C(=O)N1CCC[C@H]1C(=O)O` [pBKI1^265-272] (H-RGELF[pS]AP-OH) as the compound, how does the Kd [1] read?
Answer: 15.9 ± 0.4 µM

Question: `CC[C@H](C)[C@H](NC(=O)[C@@H](N)CCCNC(=N)N)C(=O)N[C@@H](CO)C(=O)N[C@@H](CC(N)=O)C(=O)N[C@@H](COP(=O)(O)O)C(=O)N[C@@H](C)C(=O)N1CCC[C@H]1C(=O)O` [pBZR1^169-175] (H-RISN[pS]AP-OH) was tested. Which Kd ([2]; Fig. 2D and text, read-out: KD, dissociation constant (GCI)) did it give?
Answer: 0.52 µM

Question: And the kon ([2]; Fig. 2D, read-out: ka, association rate constant)?
Answer: 1.67e+06 M⁻¹ s⁻¹

Question: And the koff ([2]; Fig. 2D, read-out: kd, dissociation rate constant)?
Answer: 0.87 s⁻¹

— paper PMC11558545, “Mechanistic Insights into the Function of 14-3-3 Proteins as Negative Regulators of Brassinosteroid Signaling in Arabidopsis” (Plant and Cell Physiology, 2024)
